Laboratory results published in PMC11984586, “A novel spider toxin as a selective antagonist of the Kv1 subfamily of voltage-gated potassium channels through gating modulation” (The Journal of Biological Chemistry, 2025).
Bridge positions count the residues as written; N and C are the ends. Peptide text beside a SMILES is read from it.

Columns and labels:
Type in all cases: cell-based
Kv1.3/E346A = target: T1, Kv1.3/E346A (Homo sapiens, UniProt P22001, E346A); assay: Whole-cell patch clamp, Kv1.3 alanine mutant
T1 construct: expressed in transfected cells; host or cells: CHO-K1
Method: (§1) MrVIII inhibits Kv1 channels by stabilizing the voltage sensor in its resting state. […] To investigate this hypothesis, we constructed a series of alanine mutants in the S3-S4 region of the Kv1.3 channel, covering residues I336 to L363, to identify critical interactions between the peptide and the channel (Fig. 6A). […] For the remaining mutants that retained functional current expression, we evaluated the inhibitory activity of 100 nM MrVIII. […] The lack of conserved multiple interaction sites may explain the absence of activity on other Kv subfamily channels (Fig. S3). In summary, this study identified key amino acid residues in the S3-S4 region of the Kv1.3 channel that interact with MrVIII, providing a foundation for further exploration into the peptide's mechanism of action.
(§2) The cDNA of hKv1.1, hKv1.2, hKv1.3, rKv1.4, hKv1.5, mKv1.6, and hKv1.7 were subcloned into mammalian expression vectors pcDNA3.1 or pCMV-blank vectors, as well as other plasmids described previously ([35]). Channel mutants were generated by site-directed mutations. Briefly, the parental channel plasmid was amplified using a pair of oppositely directed primers harboring the designed mutation site, with KOD Fx (TOYOBO Co, Ltd). The resulting PCR mix was treated with FastDigest DpnI (Thermo Fisher Scientific) to remove the methylated template. Ten microliters of the digested product was then used to transform 100 μl E. coli DH5α competent cells. Transformants were randomly picked and sequenced to confirm the presence of the intended mutation.
(§3) CHO-K1 cells were selected for expressing Kv channels due to their lack of endogenous Kv channels, while HEK293 or ND7/23 cells were used for Nav and Cav channel expression. CHO-K1 cells were cultured in a Dulbecco's modified Eagle's medium/Ham's F-12 nutrient mixture (DMEM-F12) medium, and HEK293T and ND7/23 cells in DMEM medium, all supplemented with 10% fetal bovine serum and 1% penicillin-streptomycin (all from Gibco, Thermo Fisher Scientific, Inc) under standard conditions (37 °C, 5% CO2, and saturated humidity). These cell lines were purchased from Stem Cell Bank, Chinese Academy of Sciences. Channel plasmids were cotransfected with pEGFP-N1 (encoding GFP) into the respective cells using lipofectamine 2000, following the manufacturer's instructions (Invitrogen, Thermo Fisher Scientific, Inc.). Nav1.9-GFP plasmid was transfected into ND7/23 using the X-tremeGENE HP DNA Transfection Reagent (Roche). After 4 to 6 h transfection, cells were seeded onto poly-lysine–coated coverslips, and 24 to 36 h later, transfected cells were ready for patch-clamp analysis.
(§4) Patch clamp experiments were conducted using an electrophysiology platform comprising a MultiClamp 700B amplifier and an Axon Digidata 1550 AD/DA convertor (Axon Instruments). Data acquisition was performed with pClamp 10.5 software (Axon Instruments). All experiments were performed at room temperature.
(§5) For Kv current recordings, the bath solution contained (in mM) the following: 140 NaCl, 5 KCl, 1 MgCl2, 2 CaCl2, 10 glucose, and 10 Hepes (pH 7.3, adjusted with NaOH), and the pipette solution contained (in mM) the following: 140 KCl, 2.5 MgCl2, 11 EGTA, and 10 Hepes (pH 7.3, adjusted with KOH). Series resistance was maintained below 10 MΩ and compensated to 80%. Concentration–response curves were fitted by the Hill equation to determine the toxin's potency. Whole cell conductance (G) at each depolarizing voltage (V) was determined using the equation: G = I/(V−Vrev), where I is the current amplitude, and Vrev is the reversal potential. The reversal potential for K^+ current was estimated to be −85.6 mV using the Nernst equation. G-V curves were obtained by plotting the normalized conductance as a function of V and fitted by the Boltzmann equation: y = 1/(1+ exp((Va-V)/k)), which Va is the midpoint voltage, V is the test potential, and k is the slope factor. The steady-state fast inactivation of Kv1.3 was measured using a two-pulses protocol. […]

Kv1.3/I341A = target: T2, Kv1.3/I341A (Homo sapiens, UniProt P22001, I341A); assay: Whole-cell patch clamp, Kv1.3 alanine mutant
T2 construct: expressed in transfected cells; host or cells: CHO-K1
Method: as §1, §2, §3, §4, §5

Kv1.3/L343A = target: T3, Kv1.3/L343A (Homo sapiens, UniProt P22001, L343A); assay: Whole-cell patch clamp, Kv1.3 alanine mutant
T3 construct: expressed in transfected cells; host or cells: CHO-K1
Method: as §1, §2, §3, §4, §5

Kv1.3/L360A = target: T4, Kv1.3/L360A (Homo sapiens, UniProt P22001, L360A); assay: Whole-cell patch clamp, Kv1.3 alanine mutant
T4 construct: expressed in transfected cells; host or cells: CHO-K1
Method: as §1, §2, §3, §4, §5

Kv1.3/T342A = target: T5, Kv1.3/T342A (Homo sapiens, UniProt P22001, T342A); assay: Whole-cell patch clamp, Kv1.3 alanine mutant
T5 construct: expressed in transfected cells; host or cells: CHO-K1
Method: as §1, §2, §3, §4, §5

Kv1.2/Y266A = target: T6, Kv1.2/Y266A (Homo sapiens, UniProt P16389, Y266A); assay: Whole-cell patch clamp, Tyr-to-Ala mutant homologous to Kv1.3 Y339; conditions: +30 mV, mean ± SD, n = 4–6
T6 construct: expressed in transfected cells; host or cells: CHO-K1
Source text: Building on the identification of key amino acid residues in Kv1.3 channel that interact with MrVIII through alanine-scanning mutagenesis, we extended our analysis to explore these residues across other Kv1 subfamily channels. […] However, MrVIII retained substantial inhibitory potency on Kv1.2/Y266A mutant, albeit without fully blocking the channel current. […] The profound reduction in MrVIII's effect across homologous mutants supports the idea that it binds to a conserved region.
as §2, with “Ten microliters of the digested product was then used to transform 100 μl E. coli DH5α competent cells. Transformants were randomly picked and sequenced to confirm the presence of the intended mutation.” left out
CHO-K1 cells were selected for expressing Kv channels due to their lack of endogenous Kv channels, while HEK293 or ND7/23 cells were used for Nav and Cav channel expression. […] After 4 to 6 h transfection, cells were seeded onto poly-lysine–coated coverslips, and 24 to 36 h later, transfected cells were ready for patch-clamp analysis. […]

[1] = 100 nM MrVIII on mutant compared with 10 nM on WT Kv1.3, +30 mV, n = 4–7

T5 sequence (P22001 whole entry T342A): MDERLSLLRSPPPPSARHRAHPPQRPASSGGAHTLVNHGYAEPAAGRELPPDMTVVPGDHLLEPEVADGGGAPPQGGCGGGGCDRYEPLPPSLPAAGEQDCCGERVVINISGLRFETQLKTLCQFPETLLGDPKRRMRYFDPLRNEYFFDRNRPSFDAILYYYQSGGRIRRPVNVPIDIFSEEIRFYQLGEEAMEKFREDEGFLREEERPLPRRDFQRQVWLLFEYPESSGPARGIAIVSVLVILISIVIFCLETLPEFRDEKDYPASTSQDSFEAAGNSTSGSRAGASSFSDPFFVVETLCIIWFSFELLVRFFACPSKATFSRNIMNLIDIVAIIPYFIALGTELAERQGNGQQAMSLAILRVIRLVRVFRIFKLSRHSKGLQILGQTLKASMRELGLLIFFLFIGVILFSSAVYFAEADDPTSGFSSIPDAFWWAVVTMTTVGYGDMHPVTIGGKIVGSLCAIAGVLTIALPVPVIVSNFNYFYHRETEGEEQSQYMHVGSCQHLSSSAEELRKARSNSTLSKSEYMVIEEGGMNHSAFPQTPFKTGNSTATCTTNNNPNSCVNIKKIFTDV
T6 sequence (P16389 whole entry Y266A): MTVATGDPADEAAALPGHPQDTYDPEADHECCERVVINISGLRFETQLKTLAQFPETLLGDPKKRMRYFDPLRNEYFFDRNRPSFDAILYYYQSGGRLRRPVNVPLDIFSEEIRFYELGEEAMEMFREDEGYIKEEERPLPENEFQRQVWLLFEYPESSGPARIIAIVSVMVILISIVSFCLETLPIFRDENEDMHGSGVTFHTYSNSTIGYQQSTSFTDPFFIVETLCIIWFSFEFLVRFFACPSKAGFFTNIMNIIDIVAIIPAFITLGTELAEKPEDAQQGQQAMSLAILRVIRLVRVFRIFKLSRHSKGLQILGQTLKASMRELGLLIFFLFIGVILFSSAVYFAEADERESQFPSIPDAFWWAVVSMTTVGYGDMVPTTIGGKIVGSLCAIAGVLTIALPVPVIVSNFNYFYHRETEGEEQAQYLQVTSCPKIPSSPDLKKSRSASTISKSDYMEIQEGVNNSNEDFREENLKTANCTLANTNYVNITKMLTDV
T1 sequence (P22001 whole entry E346A): as the sequence (P22001 whole entry T342A) above, with A342T, E346A counted along it
T2 sequence (P22001 whole entry I341A): as the sequence (P22001 whole entry T342A) above, with I341A, A342T counted along it
T4 sequence (P22001 whole entry L360A): as the sequence (P22001 whole entry T342A) above, with A342T, L360A counted along it
T3 sequence (P22001 whole entry L343A): as the sequence (P22001 whole entry T342A) above, with A342T, L343A counted along it

## CC[C@H](C)[C@@H]1NC(=O)[C@H](Cc2ccc(O)cc2)NC(=O)[C@H](CCC(N)=O)NC(=O)[C@@H]2CCCN2C(=O)[C@@H]2CSSC[C@H](NC(=O)[C@H](C)NC(=O)[C@H](CO)NC(=O)[C@H](CCC(=O)O)NC(=O)[C@H](CCC(=O)O)NC(=O)[C@@H](N)[C@@H](C)O)C(=O)NCC(=O)NCC(=O)N[C@@H](Cc3ccccc3)C(=O)N[C@@H](CC(N)=O)C(=O)N[C@@H](C)C(=O)N[C@@H](CCCNC(=N)N)C(=O)N[C@H]3CSSC[C@H](NC1=O)C(=O)N[C@@H](CCCCN)C(=O)NCC(=O)N[C@@H](Cc1c[nH]c4ccccc14)C(=O)N[C@@H](CCCNC(=N)N)C(=O)N[C@@H]([C@@H](C)O)C(=O)N[C@@H](CCCCN)C(=O)N[C@@H](CCCNC(=N)N)C(=O)N[C@H](C(=O)N[C@@H](CC(C)C)C(=O)N[C@@H](CC(N)=O)C(=O)N1CCC[C@H]1C(=O)O)CSSC[C@H](NC(=O)[C@H](CCCCN)NC(=O)[C@H](Cc1c[nH]cn1)NC(=O)[C@H](CC(C)C)NC(=O)[C@@H]1CCCN1C3=O)C(=O)N2 [MrVIII] (H-TEESACGGFNARCPLHKCCPQYICKGWRTKRCLNP-OH; disulfide 6-19, 13-24, 18-32; N-terminus and C-terminus assumed)
Kv1.3/E346A; [1]
  decrease of inhibitory potency vs WT Kv1.3, E346A: more than 10 fold
Kv1.3/E346A; +30 mV, 500 ms, mean ± SD, n = 4–6, SD, read-out: IC50, Kv1.3/E346A current
  IC50: 51.1 ± 21.1 nM
Kv1.3/I341A; [1]
  decrease of inhibitory potency vs WT Kv1.3, I341A: more than 10 fold
Kv1.3/I341A; +30 mV, 500 ms, mean ± SD, n = 4–6, SD, read-out: IC50, Kv1.3/I341A current
  IC50: 41 ± 26.3 nM
Kv1.3/L343A; [1]
  decrease of inhibitory potency vs WT Kv1.3, L343A: more than 10 fold
Kv1.3/L343A; +30 mV, 500 ms, mean ± SD, n = 4–6, SD, read-out: IC50, Kv1.3/L343A current
  IC50: 135 ± 34 nM
Kv1.3/L360A; [1]
  decrease of inhibitory potency vs WT Kv1.3, L360A: more than 10 fold
Kv1.3/L360A; +30 mV, 500 ms, mean ± SD, n = 4–6, SD, read-out: IC50, Kv1.3/L360A current
  IC50: 148 ± 60.4 nM
Kv1.3/T342A; [1]
  decrease of inhibitory potency vs WT Kv1.3, T342A: more than 10 fold
Kv1.3/T342A; current at 50 ms, +30 mV, mean ± SD, n = 4–6, SD
  IC50: 143 ± 38.2 nM
Kv1.3/T342A; current at 495 ms, +30 mV, mean ± SD, n = 4–6, SD
  inhi%(495 ms), Kv1.3/T342A current: 27.7 ± 12.9%
Kv1.2/Y266A; current at 50 ms
  IC50: 418 ± 41.2 nM
Kv1.2/Y266A; current at 495 ms
  inhi%(495 ms), Kv1.2/Y266A current: 36.9 ± 14.1%
